Data published in patent US10660877B2 (BRISTOL-MYERS SQUIBB COMPANY, priority 2016, dated 2020).
Like-named read-outs stand apart in the source and are kept apart here.

Assays:
human TLR7 = human TLR7 (Homo sapiens (Human), UniProt Q9NYK1); assay: TLR7 inhibition reporter assay (HEK-Blue cells, SEAP reporter, gardiquimod stimulation); assay type: cell-based
human TLR8 = human TLR8 (Homo sapiens (Human), UniProt Q9NR97); assay: TLR8 inhibition reporter assay (HEK-Blue cells, SEAP reporter, R848 stimulation);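 further: compounds tested from 0.05 nM to 50 µM, 22 h at 37 °C, SEAP measured with HEK-Blue Detection, inhibition relative to agonist plus DMSO versus a known inhibitor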
Chain of human TLR8 (Q9NR97 27-1041): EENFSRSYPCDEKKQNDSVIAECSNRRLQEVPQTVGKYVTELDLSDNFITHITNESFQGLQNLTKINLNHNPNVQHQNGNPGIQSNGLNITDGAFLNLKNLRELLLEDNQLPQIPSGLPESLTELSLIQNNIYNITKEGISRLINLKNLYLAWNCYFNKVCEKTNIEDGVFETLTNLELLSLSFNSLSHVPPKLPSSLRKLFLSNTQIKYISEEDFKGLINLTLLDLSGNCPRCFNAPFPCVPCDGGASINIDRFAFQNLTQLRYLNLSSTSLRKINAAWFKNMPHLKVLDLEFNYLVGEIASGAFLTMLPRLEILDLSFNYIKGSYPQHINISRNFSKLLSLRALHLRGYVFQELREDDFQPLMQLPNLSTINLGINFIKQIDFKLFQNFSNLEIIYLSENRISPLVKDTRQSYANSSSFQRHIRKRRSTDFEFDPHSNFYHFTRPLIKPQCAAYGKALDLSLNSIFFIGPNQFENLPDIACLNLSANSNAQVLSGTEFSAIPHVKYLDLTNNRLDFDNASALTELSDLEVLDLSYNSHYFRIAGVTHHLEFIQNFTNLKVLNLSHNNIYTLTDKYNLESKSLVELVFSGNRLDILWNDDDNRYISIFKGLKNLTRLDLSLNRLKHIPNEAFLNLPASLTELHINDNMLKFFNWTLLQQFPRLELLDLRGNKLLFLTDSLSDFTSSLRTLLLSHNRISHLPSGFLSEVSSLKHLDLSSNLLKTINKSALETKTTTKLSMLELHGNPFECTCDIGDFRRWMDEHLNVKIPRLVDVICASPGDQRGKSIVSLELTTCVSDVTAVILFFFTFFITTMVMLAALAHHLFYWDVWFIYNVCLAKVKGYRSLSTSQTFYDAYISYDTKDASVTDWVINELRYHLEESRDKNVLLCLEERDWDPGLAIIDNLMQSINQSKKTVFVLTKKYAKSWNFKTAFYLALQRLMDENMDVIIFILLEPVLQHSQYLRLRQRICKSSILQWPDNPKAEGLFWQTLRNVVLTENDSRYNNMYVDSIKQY

human TLR9 = human TLR9 (Homo sapiens (Human), UniProt Q9NR96); assay: TLR9 inhibition reporter assay (HEK-Blue cells, SEAP reporter, ODN2006 stimulation);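 further: compounds tested over 0.05 nM to 50 µM, 22 h incubation, inhibition taken as SEAP signal drop from agonist plus DMSO wells toward a known inhibitor control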
Chain of human TLR9 (Q9NR96 26-1032): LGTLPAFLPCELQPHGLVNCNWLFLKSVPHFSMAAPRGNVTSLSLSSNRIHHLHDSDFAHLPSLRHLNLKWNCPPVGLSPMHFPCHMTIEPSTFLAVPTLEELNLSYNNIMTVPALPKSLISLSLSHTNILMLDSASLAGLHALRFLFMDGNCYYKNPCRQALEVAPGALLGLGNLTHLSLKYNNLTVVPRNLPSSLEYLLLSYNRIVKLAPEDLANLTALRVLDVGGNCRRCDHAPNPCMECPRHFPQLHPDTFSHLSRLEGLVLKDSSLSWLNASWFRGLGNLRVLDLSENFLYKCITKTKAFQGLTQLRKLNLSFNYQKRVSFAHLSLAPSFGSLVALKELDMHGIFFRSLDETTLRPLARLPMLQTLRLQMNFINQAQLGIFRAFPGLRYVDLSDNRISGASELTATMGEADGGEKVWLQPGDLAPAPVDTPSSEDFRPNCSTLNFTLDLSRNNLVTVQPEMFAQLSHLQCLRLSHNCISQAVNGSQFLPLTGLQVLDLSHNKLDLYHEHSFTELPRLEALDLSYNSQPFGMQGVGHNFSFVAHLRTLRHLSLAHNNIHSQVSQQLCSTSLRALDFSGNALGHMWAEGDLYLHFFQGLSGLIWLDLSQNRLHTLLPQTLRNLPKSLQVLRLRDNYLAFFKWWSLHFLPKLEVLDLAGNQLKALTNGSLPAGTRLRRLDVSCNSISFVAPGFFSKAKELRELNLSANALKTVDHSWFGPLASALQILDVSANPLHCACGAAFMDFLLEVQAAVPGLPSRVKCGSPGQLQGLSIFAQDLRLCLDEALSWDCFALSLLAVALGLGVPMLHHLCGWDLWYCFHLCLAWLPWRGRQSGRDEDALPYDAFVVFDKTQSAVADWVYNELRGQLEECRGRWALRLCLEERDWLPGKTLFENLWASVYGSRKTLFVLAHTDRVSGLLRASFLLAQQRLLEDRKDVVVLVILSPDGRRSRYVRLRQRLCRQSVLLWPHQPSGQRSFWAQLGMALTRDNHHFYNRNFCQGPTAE

[1] = HEK-Blue cells overexpressing human TLR7, gardiquimod 7.5 μM
[2] = read-out: TLR8 IC50, HEK-Blue cells overexpressing human TLR8, R848 15.9 μM
[3] = read-out: TLR9 IC50, HEK-Blue cells overexpressing human TLR9, ODN2006 5 nM
[4] = TLR8 IC50, HEK-Blue cells overexpressing human TLR8, R848 15.9 μM
[5] = TLR9 IC50, HEK-Blue cells overexpressing human TLR9, ODN2006 5 nM
[6] = HEK-Blue cells, gardiquimod 7.5 μM
[7] = read-out: TLR8 IC50, HEK-Blue cells, R848 15.9 μM
[8] = read-out: TLR9 IC50, HEK-Blue cells, ODN2006 5 nM

Chain of human TLR7 (Q9NYK1 27-1049): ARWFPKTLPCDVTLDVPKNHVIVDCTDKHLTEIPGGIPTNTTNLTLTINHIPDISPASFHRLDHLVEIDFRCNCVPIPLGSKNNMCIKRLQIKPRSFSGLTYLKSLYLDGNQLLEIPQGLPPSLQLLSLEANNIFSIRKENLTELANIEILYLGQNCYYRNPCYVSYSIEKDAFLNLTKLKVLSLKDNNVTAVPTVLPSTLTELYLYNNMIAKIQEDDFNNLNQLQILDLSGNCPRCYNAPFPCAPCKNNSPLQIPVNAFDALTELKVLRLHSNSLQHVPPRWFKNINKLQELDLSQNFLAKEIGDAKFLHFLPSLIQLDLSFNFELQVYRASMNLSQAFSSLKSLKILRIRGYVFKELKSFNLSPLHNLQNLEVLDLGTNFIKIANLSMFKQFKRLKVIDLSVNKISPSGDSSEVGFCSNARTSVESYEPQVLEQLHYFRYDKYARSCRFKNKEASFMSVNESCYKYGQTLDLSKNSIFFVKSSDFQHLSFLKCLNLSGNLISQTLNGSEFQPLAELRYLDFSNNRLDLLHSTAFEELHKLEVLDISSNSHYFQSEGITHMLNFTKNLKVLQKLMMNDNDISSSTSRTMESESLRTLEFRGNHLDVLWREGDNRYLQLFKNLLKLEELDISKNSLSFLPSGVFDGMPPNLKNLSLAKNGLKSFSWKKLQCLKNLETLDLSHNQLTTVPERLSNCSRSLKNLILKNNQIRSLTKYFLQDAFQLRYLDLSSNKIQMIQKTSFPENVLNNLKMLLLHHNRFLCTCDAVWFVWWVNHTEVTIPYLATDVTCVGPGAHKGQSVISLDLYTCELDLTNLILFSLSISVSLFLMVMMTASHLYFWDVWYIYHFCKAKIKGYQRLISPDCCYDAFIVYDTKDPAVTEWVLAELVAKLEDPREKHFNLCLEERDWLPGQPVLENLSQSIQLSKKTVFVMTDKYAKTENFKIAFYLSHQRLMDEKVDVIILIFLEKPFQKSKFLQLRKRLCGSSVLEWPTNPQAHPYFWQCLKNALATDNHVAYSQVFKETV

Work on `Cc1cc(-c2[nH]c3ccc(C4CCN(C(=O)CN(C)C)CC4)cc3c2C(C)C)ccn1` [Example 509, 2-(dimethylamino)-1-(4-(3-isopropyl-2-(2-methylpyridin-4-yl)-1H-indol-5-yl)piperidin-1-yl)ethan-1-one] yielded an IC50 (human TLR7; [1]) of 20 nM, an IC50 (human TLR8; [2]) of 21.9 nM and an IC50 (human TLR9; [3]) of 3710 nM.
`Cc1cc(-c2[nH]c3ccc(C4CCN(Cc5nn[nH]n5)CC4)cc3c2C(C)C)cc(C)n1` [Example 462, 5-(1-((2H-tetrazol-5-yl)methyl)piperidin-4-yl)-2-(2,6-dimethylpyridin-4-yl)-3-isopropyl-1H-indole] gave an IC50 (human TLR7; [1]) of 70.4 nM, an IC50 (human TLR8; [2]) of 210 nM and an IC50 (human TLR9; [3]) of 5260 nM.
`Cc1cc(-c2[nH]c3ccc(C4CCN(C(=O)CO)CC4)cc3c2C(C)C)cc(C)n1` [Example 116, 1-(4-(2-(2,6-dimethylpyridin-4-yl)-3-isopropyl-1H-indol-5-yl)piperidin-1-yl)-2-hydroxyethan-1-one] gave an IC50 (human TLR7; [1]) of 3.4 nM, an IC50 (human TLR8; [4]) of 127 nM and an IC50 (human TLR9; [5]) of 32200 nM.
With `CC(=O)Nc1cnc(C)cc1-c1[nH]c2ccc(C3CCNCC3)cc2c1C(C)C` [Example 34, N-(4-(3-isopropyl-5-(piperidin-4-yl)-1H-indol-2-yl)-6-methylpyridin-3-yl)acetamide] the IC50 (human TLR7; [1]) was 1270 nM, the IC50 (human TLR8; [2]) was 160 nM and the IC50 (human TLR9; [3]) was 4610 nM.
Work on `Cc1cc(-c2[nH]c3ccc(C4CCN(CCCN(C)C)CC4)cc3c2C(C)C)cc(C)n1` [Example 674, 3-(4-(2-(2,6-dimethylpyridin-4-yl)-3-isopropyl-1H-indol-5-yl)piperidin-1-yl)-N,N-dimethylpropan-1-amine] yielded an IC50 (human TLR7; [1]) of 0.8 nM, an IC50 (human TLR8; [2]) of 2.8 nM and an IC50 (human TLR9; [3]) of 156 nM.
With `Cc1cc(-c2[nH]c3ccc(C4CCN(C(=O)CN5CCCCC5C)CC4)cc3c2C(C)C)cc(C)n1` (stereo not drawn) [Example 377, 1-(4-(2-(2,6-dimethylpyridin-4-yl)-3-isopropyl-1H-indol-5-yl)piperidin-1-yl)-2-(2-methylpiperidin-1-yl)ethan-1-one] the IC50 (human TLR7; [1]) was 4.4 nM, the IC50 (human TLR8; [2]) was 17.5 nM and the IC50 (human TLR9; [3]) was 514 nM.
`Cc1cc(-c2[nH]c3ccc(C4CCN(C5CCCNC5)CC4)cc3c2C(C)C)ccn1` (stereo not drawn) [Example 703, 5-([1,3′-bipiperidin]-4-yl)-3-isopropyl-2-(2-methylpyridin-4-yl)-1H-indole] showed an IC50 (human TLR7; [1]) of 8.8 nM, an IC50 (human TLR8; [2]) of 1.8 nM and an IC50 (human TLR9; [3]) of 526 nM.
Molecule `Cc1cc(-c2[nH]c3ccc(C4CCN(C(=O)C5(C)CCN(C)CC5)CC4)cc3c2C(C)C)cc(C)n1` [Example 176, (1,4-dimethylpiperidin-4-yl)(4-(2-(2,6-dimethylpyridin-4-yl)-3-isopropyl-1H-indol-5-yl)piperidin-1-yl)methanone] has an IC50 (human TLR7; [1]) of 11.1 nM, an IC50 (human TLR8; [2]) of 21.7 nM and an IC50 (human TLR9; [3]) of 663 nM.
Work on `CCc1c(-c2ccnc(C)c2)[nH]c2ccc(C3CCN(C(=O)C4(C)CCNCC4)CC3)cc12` [Example 626, (4-(3-ethyl-2-(2-methylpyridin-4-yl)-1H-indol-5-yl)piperidin-1-yl)(4-methylpiperidin-4-yl)methanone] yielded an IC50 (human TLR7; [1]) of 62.6 nM, an IC50 (human TLR8; [2]) of 53.5 nM and an IC50 (human TLR9; [3]) of 169 nM.
`CCc1c(-c2ccnc(C)c2)[nH]c2ccc(C3CCN(C(=O)C4CC5(CCNCC5)C4)CC3)cc12` [Example 631, (4-(3-ethyl-2-(2-methylpyridin-4-yl)-1H-indol-5-yl)piperidin-1-yl)(7-azaspiro[3.5]nonan-2-yl)methanone] showed an IC50 (human TLR7; [1]) of 75.6 nM, an IC50 (human TLR8; [2]) of 36.8 nM and an IC50 (human TLR9; [3]) of 434 nM.
For `Cc1ccc(S(=O)(=O)N2CCC(c3ccc4[nH]c(-c5ccnc(C)c5)c(C(C)C)c4c3)CC2)cc1` [Example 554], the IC50 (human TLR7; [1]) was 441 nM, the IC50 (human TLR8; [2]) was 1070 nM and the IC50 (human TLR9; [3]) was > 50000 nM.
For `Cc1cc(-c2[nH]c3ccc(C4CCN(C(=O)[C@H]5CC[C@H](N)CC5)CC4)cc3c2C(C)C)ccn1` [Example 764, ((1r,4r)-4-aminocyclohexyl) (4-(3-isopropyl-2-(2-methylpyridin-4-yl)-1H-indol-5-yl)piperidin-1-yl)methanone], the IC50 (human TLR7; [1]) was 174 nM, the IC50 (human TLR8; [2]) was 262 nM and the IC50 (human TLR9; [3]) was 603 nM.
In the case of `Cc1cc(-c2[nH]c3ccc(C4CCN(C(=O)CC(F)(F)F)CC4)cc3c2C(C)C)ccn1` [Example 600, 3,3,3-trifluoro-1-(4-(3-isopropyl-2-(2-methylpyridin-4-yl)-1H-indol-5-yl)piperidin-1-yl)propan-1-one], the IC50 (human TLR7; [1]) is reported as 120 nM, the IC50 (human TLR8; [2]) is reported as 269 nM and the IC50 (human TLR9; [3]) is reported as > 50000 nM.
In the case of `COc1nccc(-c2[nH]c3ccc(C4CCN(C5CCN(CC(C)C)CC5)CC4)cc3c2C)c1OC` [Example 799, 2-(2,3-dimethoxypyridin-4-yl)-5-(1′-isobutyl-[1,4′-bipiperidin]-4-yl)-3-methyl-1H-indole], the IC50 (human TLR7; [1]) is reported as 1670 nM, the IC50 (human TLR8; [2]) is reported as 360 nM and the IC50 (human TLR9; [3]) is reported as 180 nM.
`CC(=O)N1CCC(c2cc3c(C(C)C)c(-c4cc(C)nc(C)c4)[nH]c3cc2F)CC1` [Example 829, 1-(4-(2-(2,6-dimethylpyridin-4-yl)-6-fluoro-3-isopropyl-1H-indol-5-yl)piperidin-1-yl)ethan-1-one] gave an IC50 (human TLR7; [6]) of 17.5 nM, an IC50 (human TLR8; [7]) of 63.4 nM and an IC50 (human TLR9; [8]) of 3070 nM.
For `Cc1cc(-c2[nH]c3ccc(C4CCN(C(=O)C(=O)O)CC4)cc3c2C(C)C)cc(C)n1` [Example 859, 2-(4-(2-(2,6-dimethylpyridin-4-yl)-3-isopropyl-1H-indol-5-yl)piperidin-1-yl)-2-oxoacetic acid], the IC50 (human TLR7; [6]) was 44.1 nM, the IC50 (human TLR8; [7]) was 539 nM and the IC50 (human TLR9; [8]) was > 50000 nM.
Molecule `CCCNC(=O)CN1CCC(c2ccc3[nH]c(-c4cc(C)nc(C)c4)c(C(C)C)c3c2)CC1` [Example 238, 2-(4-(2-(2,6-dimethylpyridin-4-yl)-3-isopropyl-1H-indol-5-yl)piperidin-1-yl)-N-propylacetamide] has an IC50 (human TLR7; [1]) of 5.2 nM, an IC50 (human TLR8; [2]) of 10.2 nM and an IC50 (human TLR9; [3]) of 942 nM.
Work on `Cc1cc(-c2[nH]c3ccc(C4CCN(C(=O)CN5CC[C@H](O)C5)CC4)cc3c2C(C)C)cc(C)n1` [Example 380, (S)-1-(4-(2-(2,6-dimethylpyridin-4-yl)-3-isopropyl-1H-indol-5-yl)piperidin-1-yl)-2-(3-hydroxypyrrolidin-1-yl)ethan-1-one] yielded an IC50 (human TLR7; [1]) of 2 nM, an IC50 (human TLR8; [2]) of 10.5 nM and an IC50 (human TLR9; [3]) of 354 nM.
`CCCN(CCO)CC(=O)N1CCC(c2ccc3[nH]c(-c4cc(C)nc(C)c4)c(C(C)C)c3c2)CC1` [Example 398, 1-(4-(2-(2,6-dimethylpyridin-4-yl)-3-isopropyl-1H-indol-5-yl)piperidin-1-yl)-2-((2-hydroxyethyl)(propyl)amino)ethan-1-one] gave an IC50 (human TLR7; [1]) of 3.5 nM, an IC50 (human TLR8; [2]) of 26 nM and an IC50 (human TLR9; [3]) of 771 nM.
With `Cc1nccc(-c2[nH]c3ccc(C4CCN(Cc5ncn(C)n5)CC4)cc3c2C(C)C)c1F` [Example 732, 2-(3-fluoro-2-methylpyridin-4-yl)-3-isopropyl-5-(1-((1-methyl-1H-1,2,4-triazol-3-yl)methyl)piperidin-4-yl)-1H-indole] the IC50 (human TLR7; [1]) was 22.5 nM, the IC50 (human TLR8; [2]) was 10.3 nM and the IC50 (human TLR9; [3]) was 10100 nM.
For `CNCC(=O)N1CCC(c2ccc3[nH]c(-c4cc(C)ncc4C)c(C(C)C)c3c2)CC1` [Example 620, 1-(4-(2-(2,5-dimethylpyridin-4-yl)-3-isopropyl-1H-indol-5-yl)piperidin-1-yl)-2-(methylamino)ethan-1-one], the IC50 (human TLR7; [1]) was 8.1 nM, the IC50 (human TLR8; [4]) was 3.5 nM and the IC50 (human TLR9; [5]) was 3570 nM.
Work on `Cc1cc(-c2[nH]c3ccc(C4CCN(CC(=O)N(C)C)CC4)cc3c2C(C)C)c(Cl)c(C)n1` [Example 644, 2-(4-(2-(3-chloro-2,6-dimethylpyridin-4-yl)-3-isopropyl-1H-indol-5-yl)piperidin-1-yl)-N,N-dimethylacetamide] yielded an IC50 (human TLR7; [1]) of 7.7 nM, an IC50 (human TLR8; [2]) of 6 nM and an IC50 (human TLR9; [3]) of 2300 nM.
Molecule `Cc1cc(-c2[nH]c3ccc(C4CCN(CC(=O)N5CCCC(C)(C)C5)CC4)cc3c2C(C)C)cc(C)n1` [Example 249, 1-(3,3-dimethylpiperidin-1-yl)-2-(4-(2-(2,6-dimethylpyridin-4-yl)-3-isopropyl-1H-indol-5-yl)piperidin-1-yl)ethan-1-one] has an IC50 (human TLR7; [1]) of 15.4 nM, an IC50 (human TLR8; [2]) of 36.3 nM and an IC50 (human TLR9; [3]) of 973 nM.
With `CC(C)c1c(-c2ccnc(C#N)c2C(F)(F)F)[nH]c2ccc(C3CCNCC3)cc12` [Example 33, 4-(3-isopropyl-5-(piperidin-4-yl)-1H-indol-2-yl)-3-(trifluoromethyl)picolinonitrile] the IC50 (human TLR7; [1]) was 2070 nM, the IC50 (human TLR8; [2]) was 230 nM and the IC50 (human TLR9; [3]) was 5650 nM.
Molecule `CCC(C)NCC(=O)N1CCC(c2ccc3[nH]c(-c4cc(C)nc(C)c4)c(C(C)C)c3c2)CC1` (stereo not drawn) [Example 392, 2-(sec-butylamino)-1-(4-(2-(2,6-dimethylpyridin-4-yl)-3-isopropyl-1H-indol-5-yl)piperidin-1-yl)ethan-1-one] has an IC50 (human TLR7; [1]) of 3.2 nM, an IC50 (human TLR8; [2]) of 10.4 nM and an IC50 (human TLR9; [3]) of 253 nM.
For `Cc1cc(-c2[nH]c3ccc(C4CCN(C(C)CF)CC4)cc3c2C(C)C)cc(C)n1` (stereo not drawn) [Example 472, 2-(2,6-dimethylpyridin-4-yl)-5-(1-(1-fluoropropan-2-yl)piperidin-4-yl)-3-isopropyl-1H-indole], the IC50 (human TLR7; [1]) was 7.5 nM, the IC50 (human TLR8; [2]) was 13.2 nM and the IC50 (human TLR9; [3]) was 601 nM.
`Cc1cc(-c2[nH]c3ccc(C4CCNCC4)cc3c2C(C)C)cc(N)n1` [Example 12, 4-(3-isopropyl-5-(piperidin-4-yl)-1H-indol-2-yl)-6-methylpyridin-2-amine] was tested, and the IC50 (human TLR7; [1]) was 19.8 nM, the IC50 (human TLR8; [2]) was 39.7 nM and the IC50 (human TLR9; [3]) was 362 nM.
With `Cc1cc(-c2[nH]c3ccc(C4CCN(C5CC(C)OC(C)C5)CC4)cc3c2C(C)C)ccn1` (stereo not drawn) [Example 713, 5-(1-(2,6-dimethyltetrahydro-2H-pyran-4-yl)piperidin-4-yl)-3-isopropyl-2-(2-methylpyridin-4-yl)-1H-indole] the IC50 (human TLR7; [1]) was 3.5 nM, the IC50 (human TLR8; [2]) was 14.8 nM and the IC50 (human TLR9; [3]) was 550 nM.
